{"source": "patent US11534457B2", "about": "“Use of dextran sulfate” (priority 2017, dated 2022)", "key": {"[1]": {"system": "MBP expression in human Schwann cells", "experiment": "Myelin basic protein (MBP) immunostaining", "format": "cell-based", "settings": "48 h", "method": "Neurons were cultured as 40,000 cells per well and Schwann cells 3,000 cells per. Cells were treated after 24 hours. The number of cells per well depended on the growth phenotype, proliferative capacity, etc.\nSchwann cells growth medium was prepared by adding 10% of fetal bovine serum (FBS, PAA) to high-glucose DMEM and pre-warmed to 37° C. Cells were thawed in a 37° C. water bath for no longer than 2 min. Cells were gently transferred to a tube containing 10 ml of medium and centrifuged at 200 RCF for 5 min. Pellet was resuspended in 5 ml of medium and cells were counted with the Cellometer. 3,000 cells per well were seeded in previously coated 96-well plates. Cells were incubated at 37° C. with 5% CO2. Cells were allowed to settle for 24 hours before drug treatment.\nLMW-DS was prepared in the culture media of choice for each cell line and added to the respective wells in the doses 0.01 and 0.1 mg/ml. For cell survival assays cells were analyzed after 24 and 48 hours in eight identical wells/dose/time point. Differentiation and protein expression assay was analyzed after 48 hours, also in octuplicates.\nCells were fixated in the wells. […]\nThe Acumen cytometer allows the direct cytometric analysis of attached cells without prior detachment. […] The protein content of the cells can also be directly measured and expressed as either ‘total protein content’ or ‘mean protein content’."}, "[2]": {"biological_target": "protein-protein interaction between oligomeric amyloid-β and PrP^c (Homo sapiens, UniProt P04156)", "format": "binding"}, "[3]": {"system": "closed-head diffuse severe TBI (sTBI)", "experiment": "sTBI in rats, dose study, HPLC of energy metabolites, antioxidants, oxidative/nitrosative stress biomarkers, NAA (Example 7)", "format": "in vivo, Male Wistar rats", "method": "Male Wistar rats (n=160) of 300-350 g body weight were used in this study. They were fed with standard laboratory diet and water ad libitum in a controlled environment.\nAs the accepted anesthetic mixture, animals received 35 mg/kg b.w. ketamine and 0.25 mg/kg body weight midazolam by intramuscular injection. Diffuse sTBI was induced according to the “weight drop” impact acceleration model set up by Marmarou et al. J. Neurosurg. 1994, 80: 291-300. This model causes diffuse axonal injury and it is able to reproduce the physical and mechanical characteristics of the diffuse TBI in humans.\nSevere TBI was induced by dropping a 450 g weight from 2 meters height onto the rat head protected by a helmet (metal disk previously fixed on the skull using dental cement) in order to uniformly distribute the mechanical force to the brain. Rats were placed prone on a bed of specific polyurethane foam inserted in a special container; this foam dissipates the major part of the potential energy (deriving from the mechanical forces) and prevents any rebound of the animal after the impact that could produce spinal damages.\nAfter 2 or 7 days from TBI induction, rats were anesthetized again and then immediately sacrificed. These time points are coincident with the worst biochemical derangement (2 days) or, in the case of a mildly injured brain, with a full metabolic recovery (7 days).\nThe drug treatment consisted in a subcutaneous injection of 0.5 ml of LMW-DS (Tikomed) and administered at 3 different concentrations (1, 5 and 15 mg/kg body weight), according to the schematic protocol described below.\nRats subjected to sTBI and receiving a single administration of LMW-DS after 30 minutes post-TBI, with sacrifice at 2 days post-TBI. Animals were divided in the following subgroups: • 1. 12 animals subjected to sTBI and treated with 1 mg/kg b.w. LMW-DS • 2. 12 animals subjected to sTBI and treated with 5 mg/kg b.w. LMW-DS • 3. 12 animals subjected to sTBI and treated with 15 mg/kg b.w. LMW-DS\nRats subjected to sTBI and receiving a single administration of LMW-DS after 30 minutes post-TBI, with sacrifice at 7 days post-TBI. Animals were divided in the following subgroups: • 1. 12 animals subjected to sTBI and treated with 1 mg/kg b.w. LMW-DS • 2. 12 animals subjected to sTBI and treated with 5 mg/kg b.w. LMW-DS • 3. 12 animals subjected to sTBI and treated with 15 mg/kg b.w. LMW-DS\nRats (n=12) subjected to sTBI and receiving repeated administrations of the maximal dose of LMW-DS (15 mg/kg b.w.) after 30 minutes, 3 days and 5 days post-TBI, with sacrifice at 7 days post-TBI. Four additional rats were used for the histo-morphological studies. Total rats in this group: n=16\nTo minimize metabolite loss, an in vivo craniectomy was performed in all animals during anesthesia. The rat skull was carefully removed, the brain was exposed, sharply cut along the sagittal fissure and the two hemispheres were separated. The hemispheres dedicated to biochemical analyses were freeze-clamped by aluminum tongues pre-cooled in liquid nitrogen and then immersed in liquid nitrogen. The freeze-clamping procedure was introduced to accelerate freezing of the tissue, thus minimizing potential metabolite loss.\nTissue homogenization for metabolite analyses was effected as described below. After the wet weight (w.w.) determination, the frozen hemispheres were placed into 7 ml of ice-cold, nitrogen-saturated, precipitating solution (1:10 w/v) composed by CH3CN+10 mM KH2PO4, pH 7.40, (3:1; v:v), and the homogenization was performed using an Ultra-Turrax homogenizer set at 24,000 rpm/min (Janke & Kunkel, Staufen, Germany). After centrifugation at 20,690×g, for 10 min at 4° C., the clear supernatants were saved, pellets were supplemented with an aliquot of 10 mM KH2PO4 and homogenized again as described above and saved overnight at −20° C. in order to obtain a complete recovery of aqueous phase from tissue. […]"}, "[4]": {"settings": "1 mg/kg s.c. single, 30 min post-sTBI, sacrifice 2 days"}, "[5]": {"settings": "15 mg/kg s.c. single, 30 min post-sTBI, sacrifice 2 days"}, "[6]": {"settings": "2 days post sTBI, 5 or 15 mg/kg b.w."}, "[7]": {"settings": "rats, 7 days post-sTBI, single administration of 15 mg/kg b.w."}}, "data": [{"substance": "low molecular weight dextran sulfate [LMW-DS]", "values": [{"measurement": "MBP expression", "setting": "[1]; 0.01 and 0.1 mg/ml", "result": "significantly increased"}, {"measurement": "size of MBP-positive cells vs control", "setting": "[1]", "result": "larger"}, {"measurement": "Competable binding (%)", "setting": "[2]", "result": "85 ± 4", "unit": "%"}, {"measurement": "Hill coefficient", "setting": "[2]", "result": "1.00 ± 0.21"}, {"measurement": "IC50", "setting": "[2]", "result": "0.42 ± 0.16", "unit": "µg/mL"}, {"measurement": "competition for the protein-protein interaction (in words)", "setting": "[2]", "result": "in a concentration dependent manner as did LMW-DS"}, {"measurement": "CDP choline, brain concentration", "setting": "[3]; [4]", "result": "8.23 ± 1.22", "unit": "nmol/g w.w."}, {"measurement": "GDP Glucose, brain concentration", "setting": "[3]; [4]", "result": "65.66 ± 41.61", "unit": "nmol/g w.w."}, {"measurement": "UDP-Glc, brain concentration", "setting": "[3]; [4]", "result": "45.14 ± 6.68", "unit": "nmol/g w.w."}, {"measurement": "UDP-GlcNac, brain concentration", "setting": "[3]; [4]", "result": "96.62 ± 8.80", "unit": "nmol/g w.w."}, {"measurement": "NAD^+/NADH ratio, brain", "setting": "[3]; 1 mg/kg s.c. single, 30 min post-sTBI, sacrifice 2 days, adimensional", "result": "33.91 ± 9.32"}, {"measurement": "NAD^+/ADH, brain", "setting": "[3]; 1 mg/kg s.c. single, 30 min post-sTBI, sacrifice 7 days", "result": "33.91 ± 9.32"}, {"measurement": "GDP Glucose, brain concentration", "setting": "[3]; 5 mg/kg s.c. single, 30 min post-sTBI, sacrifice 2 days", "result": "83.81 ± 37.35", "unit": "nmol/g w.w."}, {"measurement": "CYTIDINE, brain concentration", "setting": "[3]; [5]", "result": "11.46 ± 2.07", "unit": "nmol/g w.w."}, {"measurement": "GDP Glucose, brain concentration", "setting": "[3]; [5]", "result": "84.24 ± 37.54", "unit": "nmol/g w.w."}, {"measurement": "UDP-Glc, brain concentration", "setting": "[3]; [5]", "result": "43.41 ± 06.43", "unit": "nmol/g w.w."}, {"measurement": "β-PSEUDOURIDINE, brain concentration", "setting": "[3]; [5]", "result": "7.84 ± 1.57", "unit": "nmol/g w.w."}, {"measurement": "ascorbic acid and reduced glutathione (GSH)", "setting": "[3]; 2 days post sTBI", "result": "significantly ameliorated"}, {"measurement": "cerebral tissue nitrites and nitrates", "setting": "[3]; 2 days post sTBI", "result": "evident decrease"}, {"measurement": "concentrations of UTP and ADP", "setting": "[3]; 2 days post sTBI", "result": "No effects"}, {"measurement": "de-phosphorylated purines and pyrimidines", "setting": "[3]; 2 days post sTBI", "result": "positively affected"}, {"measurement": "nicotinic coenzyme pool and NAD/NADH ratio", "setting": "[3]; 2 days post sTBI, 15 mg/kg b.w.", "result": "effective only at the maximal dose tested"}, {"measurement": "Acetyl-CoA", "setting": "[3]; [6]", "result": "partial rescue"}, {"measurement": "whole brain NAA", "setting": "[3]; [6]", "result": "significantly higher than values found in sTBI rats"}, {"measurement": "high energy phosphates (ATP, GTP, and CTP) vs sTBI", "setting": "[3]; 2 days post sTBI, all three dosages (1, 5, 15 mg/kg)", "result": "Significantly higher values"}, {"measurement": "ATP level, lower than the value of controls", "setting": "[3]; 7 days post impact (untreated sTBI 35%)", "result": 16, "unit": "%"}, {"measurement": "NAA concentration, lower than the value of controls", "setting": "[3]; 7 days post impact (untreated sTBI 48%)", "result": 16, "unit": "%"}, {"measurement": "de-phosphorylated purines and pyrimidines", "setting": "[3]; 7 days post sTBI", "result": "positively affected"}, {"measurement": "CoA-SH and Acetyl-CoA", "setting": "[3]; 7 days post sTBI, 5 or 15 mg/kg b.w. (single and repeat)", "result": "Remarkable positive effects"}, {"measurement": "ATP", "setting": "[3]; 7 days post sTBI, any dose tested", "result": "significant increases"}, {"measurement": "concentrations of nicotinic coenzymes", "setting": "[3]; 7 days post sTBI, excluding the lowest dose", "result": "significant improvement"}, {"measurement": "ascorbic acid and GSH, with decrease of nitrites and nitrates", "setting": "[3]; 7 days post sTBI, highest single and repeat dose", "result": "particularly beneficial"}, {"measurement": "ATP/ADP ratio", "setting": "[3]; 7 days post sTBI, increasing dose", "result": "progressively increased"}, {"measurement": "whole brain NAA", "setting": "[3]; 7 days post sTBI, increasing single doses or repeat maximal dose", "result": "dose dependent increase"}, {"measurement": "cerebral energy metabolism", "setting": "[3]; 7 days post sTBI, more evident above 1 mg/kg b.w.", "result": "general improvement"}, {"measurement": "NAD+ level and NAD/NADH ratio", "setting": "[3]; 7 days post sTBI, single and repeat 15 mg/kg b.w.", "result": "able to normalize NAD+ level and to restore the correct NAD/NADH ratio"}, {"measurement": "ADENOSINE concentration in deproteinized brain homogenates", "setting": "[3]; rats, 7 days post-sTBI, repeated administration of 15 mg/kg b.w.", "result": "40.84 ± 30.25", "unit": "nmol/g w.w."}, {"measurement": "GMP concentration in deproteinized brain homogenates", "setting": "[3]; rats, 7 days post-sTBI, single administration of 1 mg/kg b.w.", "result": "113.06 ± 53.51", "unit": "nmol/g w.w."}, {"measurement": "ADENOSINE concentration in deproteinized brain homogenates", "setting": "[3]; [7]", "result": "55.95 ± 41.44", "unit": "nmol/g w.w."}, {"measurement": "CDP choline concentration in deproteinized brain homogenates", "setting": "[3]; [7]", "result": "10.06 ± 3.23", "unit": "nmol/g w.w."}]}]}
